Tests used:
human spermatozoa [1] = test: total motile sperm, percent change vs DMSO (non-capacitating); higher = more of the measured sperm population than DMSO, for viability, fewer PI-positive (dead) cells than DMSO
human spermatozoa [2] = test: hyperactivated motile sperm, percent change vs DMSO (capacitating); higher = more of the measured sperm population than DMSO, for viability, fewer PI-positive (dead) cells than DMSO; conditions: incubation time: 30min incubation
HepG2 = HepG2 toxicity (resazurin), effect normalised to DMSO (DMSO = 0); higher = more features changed / larger toxic effect; conditions: incubation time: 70h incubation
HeLa [3] = test: Cell Painting percent induction (share of features beyond 2 z-scores vs DMSO); higher = more features changed / larger toxic effect; extreme values may be limits of the assay; conditions: incubation time: 24h incubation
HeLa [4] = test: HeLa toxicity: nuclei-count effect normalised to DMSO (DMSO = 0); higher = more features changed / larger toxic effect; conditions: incubation time: 24h incubation
human spermatozoa [5] = test: progressively motile sperm, percent change vs DMSO (capacitating); higher = more of the measured sperm population than DMSO, for viability, fewer PI-positive (dead) cells than DMSO; conditions: incubation time: 30min incubation
human spermatozoa [6] = test: acrosome-reacted (PNA+) sperm after agonist cocktail, percent change vs DMSO (capacitating); higher = more of the measured sperm population than DMSO, for viability, fewer PI-positive (dead) cells than DMSO; conditions: incubation time: 3h, capacitating + agonist cocktail 1h
human spermatozoa [7] = test: progressively motile sperm, percent change vs DMSO (non-capacitating); higher = more of the measured sperm population than DMSO, for viability, fewer PI-positive (dead) cells than DMSO; extreme values may be limits of the assay
human spermatozoa [8] = test: viability fold change, 1 - (PI-positive fraction / DMSO median); higher = more of the measured sperm population than DMSO, for viability, fewer PI-positive (dead) cells than DMSO; conditions: incubation time: 3h, non-capacitating
human spermatozoa [9] = test: change in acrosome-reacted (PNA+) sperm vs DMSO, no agonist (capacitating); higher = more of the measured sperm population than DMSO, for viability, fewer PI-positive (dead) cells than DMSO; conditions: incubation time: 3h
[10] = incubation time: 10min incubation, 9.99 µM
[11] = incubation time: 10min incubation, 29.9 µM
[12] = incubation time: 3h incubation, 9.99 µM
[13] = incubation time: 3h incubation, 29.9 µM
[14] = incubation time: 6h incubation, 9.99 µM
[15] = incubation time: 6h incubation, 29.9 µM
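Wherever progressively motile sperm, percent change vs DMSO (non-capacitating) is given: pooled live human sperm from at least 3 donors, tracked by automated microscopy in 0.5 s time-lapse movies, compounds at 10 and 30 µM, versus median of 16 DMSO wells per plate.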
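Wherever total motile sperm, percent change vs DMSO (non-capacitating) is given: sperm pooled from at least 3 donors, tracked in 0.5 s time-lapse movies by automated microscopy after 10 min, 3 h or 6 h with compound at 10 or 30 µM.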

Compound | total motile sperm (human spermatozoa [1]; [10]) [%] | total motile sperm (human spermatozoa [1]; [11]) [%] | total motile sperm (human spermatozoa [1]; [12]) [%] | total motile sperm (human spermatozoa [1]; [13]) [%] | total motile sperm (human spermatozoa [1]; [14]) [%] | total motile sperm (human spermatozoa [1]; [15]) [%] | hyperactivated motile sperm (human spermatozoa [2]; 9.99 µM) [%] | hyperactivated motile sperm (human spermatozoa [2]; 29.9 µM) [%] | HepG2 toxicity (HepG2; 10 µM) [%] | HepG2 toxicity (HepG2; 30 µM) [%] | Cell Painting percent induction (HeLa [3]; 9.99 µM) [%] | Cell Painting percent induction (HeLa [3]; 29.9 µM) [%] | HeLa toxicity: nuclei-count effect normalised (HeLa [4]; 9.99 µM) [%] | HeLa toxicity: nuclei-count effect normalised (HeLa [4]; 29.9 µM) [%] | progressively motile sperm (human spermatozoa [5]; 9.99 µM) [%] | progressively motile sperm (human spermatozoa [5]; 29.9 µM) [%] | acrosome-reacted (human spermatozoa [6]; 9.99 µM) [%] | acrosome-reacted (human spermatozoa [6]; 29.9 µM) [%] | progressively motile sperm (human spermatozoa [7]; [10]) [%] | progressively motile sperm (human spermatozoa [7]; [11]) [%] | progressively motile sperm (human spermatozoa [7]; [12]) [%] | progressively motile sperm (human spermatozoa [7]; [13]) [%] | progressively motile sperm (human spermatozoa [7]; [14]) [%] | progressively motile sperm (human spermatozoa [7]; [15]) [%] | viability fold change (human spermatozoa [8]; 9.99 µM) | viability fold change (human spermatozoa [8]; 29.9 µM) | change in acrosome-reacted (human spermatozoa [9]; 9.99 µM) [%] | change in acrosome-reacted (human spermatozoa [9]; 29.9 µM) [%]
N=C(N)Nc1ccc(C(=O)Oc2ccc3cc(C(=N)N)ccc3c2)cc1 [Nafamostat] | -0.692 | 2.17 | -4.33 | -1.82 | -5.56 | -0.0709 | 5.36 | 1.98 | -7.68 | 4.06 | 0 | 0 | 2.4 | 1.27 | 3.69 | 9.5 | 5.51 | 15.9 | -2.19 | 0.269 | -19.4 | -27.7 | -23.3 | -29.6 | -0.884 | -0.901 | 0.86 | 1.56
O=C(Nc1ccc([N+](=O)[O-])cc1Cl)c1cc(Cl)ccc1O [Niclosamide] | -2.96 | -1.25 | -8.32 | -3.27 | -6.27 | -2.49 | -59.6 | -70.1 | -3.07 | 1.35 | 8.47 | 7.82 | 31.1 | 32.3 | -1.8 | -5.95 | 7.25 | 4.65 | -28.1 | -27.6 | -26.2 | -30.1 | -18.2 | -26.8 | 0.501 | 0.431 | 1.03 | 1.07
O=C(O)c1cccnc1Nc1cccc(C(F)(F)F)c1 [Niflumic acid] | 2.12 | 1.32 | -5.94 | -1.61 | -3.08 | -6.87 | 19.3 | -6.47 | 4.41 | -6.15 | 0 | 0 | 2.94 | -2.27 | 5.54 | 7.87 | 4.85 | -0.457 | 9.44 | 5.93 | -5.45 | 4.68 | 7.86 | -5.16 | -1.06 | -0.652 | 0.714 | 0.944
COC(=O)[C@]1(C)CC[C@]2(C)CC[C@]3(C)C4=CC=C5C(=CC(=O)C(O)=C5C)[C@]4(C)CC[C@@]3(C)[C@@H]2C1 [Pristimerin] | -50.2 | -83.1 | -90.8 | -88.7 | -92.1 | -85.4 | -72.5 | -73.6 | 103 | 103 | 46.9 | 38.9 | 98.7 | 98.7 | -74.5 | -96.6 | -52.1 | -57.5 | -86.8 | -99.9 | -100 | -100 | -100 | -99.9 | -0.933 | -1.2 | 3.63 | 6.18
CCOCc1nc2c(N)nc3ccccc3c2n1CC(C)(C)O [Resiquimod] | -0.764 | -12.1 | -11.9 | -23.9 | -12.4 | -21.3 | -81.8 | -84.5 | 12.3 | -1.68 | 0 | 0 | 1.14 | 0.735 | -29.5 | -59.7 | 2.21 | -0.339 | -38.4 | -75.7 | -66.1 | -88 | -66.2 | -83.9 | -0.843 | -0.207 | 0.989 | 0.739
[O-][S+](c1ccccc1)c1ccc2nnnn2n1 (configuration not stated) [Ro 106-9920] | -8.15 | -30.9 | -92.3 | -89.9 | -92.2 | -89.8 | -3.35 | -67.1 | 103 | 103 | 0.684 | 42.4 | 43.7 | 96.9 | -9.75 | -78.3 | 149 | 142 | -34.9 | -68.2 | -100 | -99.9 | -100 | -100 | -0.184 | -0.13 | 8.05 | 18.3
[O]=[V]([O-])([O-])[O-] [Sodium orthovanadate] | 2.91 | 0.876 | 8.66 | -0.441 | 8.42 | -0.812 | 14.9 | 5.6 | -3.1 | 8.27 | 0 | 0 | -6.61 | -4.07 | 5.23 | 3.21 | 9.33 | 1.67 | 7.34 | 4.35 | 13.8 | 7.93 | 20 | 10.3 | -0.276 | -0.0929 | 0.239 | 0.284
CCc1c(C)nc(SCC(=O)Nc2nc(-c3ccc(OC)cc3)cs2)[nH]c1=O [T16Ainh-A01] | 2.04 | 2.24 | -4.04 | 0.707 | -7.94 | -0.932 | -2.36 | -0.263 | -6.4 | -1.86 | 0 | 0.108 | 6.48 | -5.14 | 2.99 | 14.4 | 8.11 | 6.61 | 5.37 | 6.45 | 1.94 | 14.7 | 4.81 | 19.4 | -0.653 | -0.578 | 0.555 | 1.02
CNC(=O)c1ccccc1Nc1nc(Nc2ccc(N3CCOCC3)cc2OC)ncc1Cl [TAE226] | 0.613 | 1.31 | -18.9 | -22.2 | -16.2 | -14.9 | 137 | 34.1 | 92.5 | 99.8 | 1.84 | 21.1 | 45.5 | 83.4 | -5.22 | -5.06 | 10.7 | 31.6 | 30.1 | 34.5 | 9.37 | 3.96 | 25.7 | 23.8 | -0.257 | 0.581 | 1.37 | 1.97
